Reference: patent publication US20240174669A1, “CRYSTALLINE FORMS OF A PARP1 INHIBITOR” (XinThera, Inc., priority 2022, published 2024)
In brackets after ≈: the same amount, converted by molar mass.

Assay: Solubility estimation at RT by visual observation in solvent systems
Assay type: physicochemical
Settings: organic solvent or mixture, thermodynamic from solid
Description: The solubility of compound 1 was estimated at RT by visual observation in 11 solvent systems. Approximately 5 mg solids were weighed into 8 mL glass vial, and then solvent was added stepwise until solids were dissolved completely or a total of solvent volume reached 5 mL. […] The solubility was estimated and for reference only.

For `CNC(=O)c1ccc(N2CCN(Cc3cnc4cc(C5CC5)c(=O)[nH]c4c3)CC2)cn1` [Starting material, 5-(4-((7-cyclopropyl-6-oxo-5,6-dihydro-1,5-naphthyridin-3-yl)methyl)piperazin-1-yl)-N-methylpicolinamide], the solubility (most of the 11 tested solvent systems, RT, most tested solvents, except DMSO) was under 5000 µg/mL, the solubility (estimated at RT, visual observation, DMSO) was 20000 to 50000 µg/mL (≈ 47.8 to 119 mM) and the solubility (estimated at RT, Acetone, ACN, Toluene, EA, n-Heptane, Water, Anisole, DCM, THF) was under 1000 µg/mL. For the same compound, the solubility (estimated, visual observation, MeOH, THF (50° C.)) was 1000 to 5000 µg/mL (≈ 2.39 to 11.9 mM).
